Structures are written as SMILES. Several values for one entry are separate records, joined by “and”; a condition that tells them apart may be missing. Equal values may be shown once.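 All cell lines were grown in 96-well plates and treated with compound for 48 hours. GI50 = concentration required for 50% inhibition of growth. The concentration for full growth arrest is given as TGI.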

Some test systems named below: XF 498 CNS; SNB-78 CNS; DMS 273 small cell lung; DMS 114 small cell lung; M19-MEL melanoma; RXF-631 renal; DLD-1 colon; MDA-N; HOP-18 NSCLC.
Common to all, as to experiment: inhibition of tumour cell growth, NCI panel, 48 h

Consider `Cc1nn(-c2ccccc2)c2nc(N3CCOCC3)nnc12`, for which the TGI in the assay with XF 498 CNS, in the assay with SNB-78 CNS, in the assay with DMS 273 small cell lung, with DMS 114 small cell lung, in the assay on M19-MEL melanoma and in the assay on RXF-631 renal was over 100 µM throughout. In addition, the TGI in the assay on DLD-1 colon was over 100 µM.

Take `CC(CCC=O)CCOCc1ccccc1` (stereo not given): the TGI with XF 498 CNS, in the assay with SNB-78 CNS, in the assay on MDA-N, in the assay on DMS 273 small cell lung, with HOP-18 NSCLC and in the assay with DMS 114 small cell lung was over 100 µM each time. The TGI with M19-MEL melanoma and in the assay on DLD-1 colon was over 100 µM throughout.

In the case of `N#Cc1nc(Nc2cccc3ccccc23)sc1N`, the TGI in the assay on XF 498 CNS was over 100 µM; in the assay on SNB-78 CNS, 75.6 µM; in the assay on DMS 273 small cell lung it was over 100 µM; in the assay with M19-MEL melanoma it was over 100 µM; in the assay on DLD-1 colon it was over 100 µM.

`CS(=O)(=O)Nc1ccc2c(c1)oc(=O)c1ccccc12` showed a TGI with MDA-N of over 100 µM.

With `CCOc1ccccc1C=C1c2ccccc2C(=O)c2ccccc21`, the TGI in the assay on SNB-78 CNS is over 100 µM; with DMS 273 small cell lung it was 15.7 µM; in the assay with DMS 114 small cell lung, 15.9 µM; with M19-MEL melanoma, over 100 µM; with DLD-1 colon, over 100 µM.

Consider `COC(=O)c1cc2c(s1)C(=O)c1ccccc1-2`, for which the TGI in the assay on SNB-78 CNS, with DMS 273 small cell lung, with HOP-18 NSCLC, in the assay on DMS 114 small cell lung, with M19-MEL melanoma and in the assay with RXF-631 renal was over 100 µM throughout. This molecule returned a TGI in the assay with DLD-1 colon of over 100 µM.

For the molecule `Cc1cc([N+](=O)[O-])ccc1Nc1cccc(Cl)c1C`, the TGI in the assay on DMS 273 small cell lung stood at 28.5 µM; in the assay on HOP-18 NSCLC, 29.6 µM; in the assay on DMS 114 small cell lung it was 28.9 µM; with M19-MEL melanoma it was 30.6 µM; in the assay on RXF-631 renal it was 31.3 µM; in the assay with DLD-1 colon it was 33.5 µM.

With `NC(=O)NC1C(c2ccccc2)=C1c1ccccc1`, in the assay on MDA-N, the TGI came out at 34.4 µM.

Take `CC1(C)COC(c2cccnc2/C=N/O)=N1`: the TGI in the assay with XF 498 CNS, in the assay with SNB-78 CNS, in the assay with DMS 273 small cell lung, in the assay on HOP-18 NSCLC, with M19-MEL melanoma and in the assay on RXF-631 renal was over 100 µM each time. The molecule also came in with a TGI in the assay on DLD-1 colon of over 100 µM.

With `C=COCCCOc1ccccc1`, the TGI with XF 498 CNS, with DMS 273 small cell lung, in the assay with HOP-18 NSCLC, in the assay with DMS 114 small cell lung, in the assay with M19-MEL melanoma and in the assay on DLD-1 colon was over 100 µM throughout.

In the case of `O/N=C/C1C(OCc2ccccc2)C(OCc2ccccc2)C(OCc2ccccc2)CN1Cc1ccccc1` (stereo not given), the TGI with MDA-N was 39.3 µM and > 100 µM.

As to `S=C1NC2(CCCCCC2)NN1c1ccccc1`, the TGI in the assay on MDA-N, with HOP-18 NSCLC, in the assay on DMS 114 small cell lung, with RXF-631 renal and in the assay with DLD-1 colon was over 100 µM each time.

In the case of `NNC(=S)N/N=C(\CC1OC(=O)c2ccccc21)c1ccccc1O` (stereo not given), the TGI in the assay on XF 498 CNS, in the assay on SNB-78 CNS, in the assay with DMS 273 small cell lung, with HOP-18 NSCLC, with DMS 114 small cell lung and with M19-MEL melanoma was over 100 µM each time. The TGI with RXF-631 renal and with DLD-1 colon was over 100 µM in each case.

With `COC1(OC)CC2C(=O)N(Cc3ccccc3)C1C(S(=O)(=O)c1ccccc1)C2S(=O)(=O)c1ccccc1` (stereo not given), the TGI in the assay on SNB-78 CNS was found to be 39.1 µM; with DMS 273 small cell lung, 27.7 µM; in the assay with HOP-18 NSCLC, 31 µM; in the assay with DMS 114 small cell lung, 16 µM; in the assay on M19-MEL melanoma, 23.8 µM; with RXF-631 renal, 32.6 µM. For the same molecule, in the assay with DLD-1 colon, the TGI came out at 13.3 µM.

Turning to `CCC[CH2][Sn]1([CH2]CCC)[O]N=C(c2ccccc2)C(c2ccccc2)[O]1` (stereo not given), the GI50 was 3.07 µM in the assay on SNB-78 CNS; 1.59 µM in the assay on DMS 273 small cell lung; 0.965 µM with DMS 114 small cell lung; 1.56 µM in the assay with M19-MEL melanoma; 1.79 µM in the assay on DLD-1 colon. For the same molecule, the TGI in the assay with SNB-78 CNS was 8.01 µM; with DMS 273 small cell lung, 3.05 µM; in the assay on DMS 114 small cell lung, 2.18 µM; in the assay on M19-MEL melanoma it was 3.13 µM; in the assay with DLD-1 colon it was 3.58 µM.

For `CN(C)c1ccc(C(C=C2c3ccccc3Sc3ccccc32)=C(C#N)C#N)cc1`, the TGI in the assay with XF 498 CNS, in the assay with SNB-78 CNS, with DMS 273 small cell lung, in the assay with HOP-18 NSCLC, with DMS 114 small cell lung and in the assay on M19-MEL melanoma was over 100 µM each time. Also, the TGI in the assay with RXF-631 renal and in the assay with DLD-1 colon was over 100 µM in each case.

With `CN(C)/C=N/c1nc2c(ncn2C2OC(CO)C(O)C2O)c(=O)[nH]1` (stereo not given), the TGI in the assay on XF 498 CNS, in the assay on SNB-78 CNS, in the assay on DMS 273 small cell lung, in the assay with HOP-18 NSCLC, in the assay on DMS 114 small cell lung and with M19-MEL melanoma was over 100 µM throughout. For the same molecule, the TGI with RXF-631 renal and with DLD-1 colon was over 100 µM each time.

`O=C(CCn1[nH]c(=O)c(Cl)c(Cl)c1=O)NO`: the TGI with XF 498 CNS, in the assay with DMS 273 small cell lung, with HOP-18 NSCLC, in the assay with DMS 114 small cell lung, with M19-MEL melanoma and with DLD-1 colon was over 100 µM in each case.

Take `COC(=O)C1=C(O)c2cc(OC)c(OC)cc2C(c2ccc(OC)c(OC)c2)C1` (stereo not given): the TGI in the assay on XF 498 CNS, in the assay with SNB-78 CNS, with DMS 273 small cell lung, in the assay on HOP-18 NSCLC, with DMS 114 small cell lung and in the assay with M19-MEL melanoma was over 100 µM throughout. Further, the TGI in the assay with RXF-631 renal and in the assay on DLD-1 colon was over 100 µM throughout.

`CNC(=O)N(C)N=NCCCl`: the TGI with MDA-N, in the assay with DMS 273 small cell lung, in the assay on DMS 114 small cell lung, in the assay on M19-MEL melanoma and with DLD-1 colon was over 100 µM in each case.

On to `O=C(O)C1C2C=CC(O2)C1C(=O)NCc1ccccn1` (stereo not given), for which the TGI with MDA-N was over 100 µM.

The values above are taken from PubChem BioAssay (NCI).
